Measured values published in patent US8168651B2, “Protein kinase modulators” (Cylene Pharmaceuticals, Inc., priority 2008, dated 2012).
Where two headings read alike, the source gives them in different places.

Experiments:
[1] = target: PARP-HSA enzyme (Homo sapiens (Human), UniProt P09874); assay: PARP assay (chemiluminescent PARP assay kit, Trevigen); assay type: biochemical; details: for IC50: read-out: PARP Inhibition IC50
Protocol: Modulatory activity of compounds described herein was assessed in vitro in cell-free CK2 assays. Modulatory activity of compounds described herein also are assessed in vitro in cell-free PARP assays. These assays are described hereafter.
PARP assays are conducted using a chemiluminescent PARP assay kit (Trevigen). Briefly, reactions are performed in Histone-coated strip wells, by adding 10 microliters test compound dissolved in 1×PARP Buffer (prepared by mixing 20×PARP buffer diluted with high-purity water) and 15 microliters diluted PARP-HSA enzyme (diluted in 1×PARP buffer, 0.1 unit per well) to 25 microliters PARP cocktail (prepared from 10×PARP cocktail and 10× activated DNA, both 2.5 microliters per well and 20 microliters per well of 1×PARP buffer). The reactions are incubated at ambient temperature for 60 minutes, then the liquid was removed. After washing the wells four times with PBS (200 ul), 50 microliters of STREP-HRP (Horseradish Peroxidase) solution (diluted 500-fold in 1× Strep-Diluent) was added and the reactions were allowed to incubate for 30 minutes at ambient temperature. The liquid was removed and, after washing the wells four times with PBS (200 ul), 50 microliters each of PeroxyGlo A and B (Chemiluminescent Horseradish Peroxidase substrates) are added and the resulting chemiluminescence quantified on the SpectraMax M5 plate reader.

[2] = target: recombinant human CK2 (Homo sapiens (Human), UniProt P68400); assay: CK2 assay (cell-free, 33P-ATP filter plate); assay type: biochemical; details: 10 uM; read-out: CK2 % inhib @ 10 uM
[3] = tested on: Jurkat; assay: Cell proliferation modulatory activity, Jurkat; assay type: cell-based; details: Homo sapiens
[4] = target: recombinant human PIM1 (Homo sapiens (Human), UniProt P11309); assay: PIM-1 kinase activity in cell-free in vitro assay; assay type: biochemical; details: cell-free; for inhibition at 0.5 µM: 500 nM compound, read-out: PIM-1: % inh 500 nM
[5] = tested on: MV-4-11; assay: Cell proliferation modulatory activity, MV-4-11; assay type: cell-based; details: Homo sapiens, MV4-11
[6] = tested on: HCT-116 human colorectal carcinoma cells; assay: Cell-proliferation assay using Alamar Blue dye; assay type: cell-based; details: Homo sapiens;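 also: cells exposed to compound for about 4 days, then Alamar Blue added and dye fluorescence read after about 4 h, compared with medium-only control wells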
[7] = tested on: K-562; assay: Cell proliferation modulatory activity, K-562; assay type: cell-based; details: Homo sapiens, K562
[8] = target: Flt3 (Homo sapiens (Human), UniProt P36888); assay: FLT-3 kinase activity in cell free in vitro assay; assay type: biochemical; details: cell-free; read-out: FLT-3
[9] = HCT-116, read-out: HCT-116 (uM), cell proliferation modulatory activity, HCT-116, second column

Chain of recombinant human PIM1 (P11309 whole entry): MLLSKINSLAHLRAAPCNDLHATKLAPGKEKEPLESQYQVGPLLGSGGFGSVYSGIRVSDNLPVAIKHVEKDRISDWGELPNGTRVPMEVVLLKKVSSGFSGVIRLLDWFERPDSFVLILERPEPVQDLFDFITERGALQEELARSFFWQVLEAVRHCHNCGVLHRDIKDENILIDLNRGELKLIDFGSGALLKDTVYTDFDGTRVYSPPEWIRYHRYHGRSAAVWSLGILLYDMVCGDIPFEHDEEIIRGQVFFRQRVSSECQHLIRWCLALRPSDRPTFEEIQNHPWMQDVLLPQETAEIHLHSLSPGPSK
Chain of PARP-HSA enzyme (P09874 whole entry): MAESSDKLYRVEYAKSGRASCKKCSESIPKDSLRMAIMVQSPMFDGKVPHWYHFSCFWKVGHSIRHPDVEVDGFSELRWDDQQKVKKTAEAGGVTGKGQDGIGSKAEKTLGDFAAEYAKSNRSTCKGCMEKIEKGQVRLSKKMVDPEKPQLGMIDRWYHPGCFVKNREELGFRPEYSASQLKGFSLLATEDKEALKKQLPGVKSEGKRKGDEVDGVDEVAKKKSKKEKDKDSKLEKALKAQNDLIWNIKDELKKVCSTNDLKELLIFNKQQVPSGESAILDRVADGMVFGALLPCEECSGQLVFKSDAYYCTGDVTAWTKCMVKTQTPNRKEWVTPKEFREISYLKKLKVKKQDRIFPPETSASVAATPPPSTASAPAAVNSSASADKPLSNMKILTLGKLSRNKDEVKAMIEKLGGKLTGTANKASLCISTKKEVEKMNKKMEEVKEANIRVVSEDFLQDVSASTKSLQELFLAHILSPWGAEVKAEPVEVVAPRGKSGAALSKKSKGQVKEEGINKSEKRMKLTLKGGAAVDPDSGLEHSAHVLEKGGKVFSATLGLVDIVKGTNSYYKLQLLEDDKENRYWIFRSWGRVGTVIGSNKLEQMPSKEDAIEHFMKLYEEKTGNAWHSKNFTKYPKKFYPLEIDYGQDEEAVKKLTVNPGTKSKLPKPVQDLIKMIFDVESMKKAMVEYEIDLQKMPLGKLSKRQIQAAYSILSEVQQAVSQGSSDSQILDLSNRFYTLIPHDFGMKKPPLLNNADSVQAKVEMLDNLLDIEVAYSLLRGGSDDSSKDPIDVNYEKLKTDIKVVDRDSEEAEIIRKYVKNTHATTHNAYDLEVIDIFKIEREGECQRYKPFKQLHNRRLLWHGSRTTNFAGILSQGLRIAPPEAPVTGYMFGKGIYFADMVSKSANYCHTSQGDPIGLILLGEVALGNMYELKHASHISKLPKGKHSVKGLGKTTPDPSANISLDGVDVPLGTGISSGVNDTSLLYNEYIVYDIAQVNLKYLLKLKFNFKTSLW
Chain of Flt3 (P36888 27-993): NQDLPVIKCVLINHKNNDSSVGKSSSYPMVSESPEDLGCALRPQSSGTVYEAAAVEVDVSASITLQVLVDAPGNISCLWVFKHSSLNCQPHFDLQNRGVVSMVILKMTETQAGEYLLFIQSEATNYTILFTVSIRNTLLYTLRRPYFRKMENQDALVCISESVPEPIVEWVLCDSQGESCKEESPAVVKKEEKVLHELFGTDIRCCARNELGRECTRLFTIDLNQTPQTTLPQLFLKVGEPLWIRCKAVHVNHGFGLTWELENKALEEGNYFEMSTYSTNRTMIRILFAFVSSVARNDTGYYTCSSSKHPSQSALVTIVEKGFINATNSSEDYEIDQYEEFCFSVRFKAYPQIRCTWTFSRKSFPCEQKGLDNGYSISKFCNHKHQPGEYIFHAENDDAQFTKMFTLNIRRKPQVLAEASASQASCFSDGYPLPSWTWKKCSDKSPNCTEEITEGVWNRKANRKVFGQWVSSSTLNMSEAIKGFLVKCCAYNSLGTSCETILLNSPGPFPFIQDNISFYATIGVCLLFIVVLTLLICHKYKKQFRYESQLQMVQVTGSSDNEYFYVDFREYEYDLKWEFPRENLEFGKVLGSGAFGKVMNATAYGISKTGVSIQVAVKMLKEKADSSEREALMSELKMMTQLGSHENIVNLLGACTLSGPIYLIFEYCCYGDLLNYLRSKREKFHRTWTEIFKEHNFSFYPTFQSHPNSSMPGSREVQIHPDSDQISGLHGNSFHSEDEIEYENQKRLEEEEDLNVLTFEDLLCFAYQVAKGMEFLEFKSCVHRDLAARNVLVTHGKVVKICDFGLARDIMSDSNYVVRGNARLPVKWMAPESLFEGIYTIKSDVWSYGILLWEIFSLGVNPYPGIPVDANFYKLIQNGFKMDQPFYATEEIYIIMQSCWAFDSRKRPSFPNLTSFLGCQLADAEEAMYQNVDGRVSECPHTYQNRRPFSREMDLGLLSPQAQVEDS
Chain of recombinant human CK2 (P68400 whole entry): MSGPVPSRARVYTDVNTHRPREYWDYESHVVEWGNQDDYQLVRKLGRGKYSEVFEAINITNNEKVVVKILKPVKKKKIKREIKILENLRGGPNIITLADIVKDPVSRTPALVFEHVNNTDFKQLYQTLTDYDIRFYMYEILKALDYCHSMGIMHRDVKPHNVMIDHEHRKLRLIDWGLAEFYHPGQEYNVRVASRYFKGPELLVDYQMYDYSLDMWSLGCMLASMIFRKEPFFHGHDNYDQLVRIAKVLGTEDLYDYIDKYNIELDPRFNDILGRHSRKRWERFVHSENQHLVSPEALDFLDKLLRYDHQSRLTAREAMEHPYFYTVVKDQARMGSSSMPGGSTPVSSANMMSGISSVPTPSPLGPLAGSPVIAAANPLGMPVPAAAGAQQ
Chain of recombinant human CK2 (P67870 whole entry partner): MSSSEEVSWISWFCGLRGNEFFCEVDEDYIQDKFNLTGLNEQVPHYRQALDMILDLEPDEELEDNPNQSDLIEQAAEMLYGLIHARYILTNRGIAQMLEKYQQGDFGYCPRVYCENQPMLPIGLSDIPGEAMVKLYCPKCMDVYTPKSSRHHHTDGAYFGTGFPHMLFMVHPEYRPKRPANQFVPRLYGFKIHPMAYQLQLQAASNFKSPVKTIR

IC50 [3] [µM] | inhibition at 0.5 µM [4] [%] | IC50 [4] [µM] | IC50 [5] [µM] | IC50 [6, 9] [µM] | IC50 [7] [µM] | further results | SMILES
 |  |  |  |  |  | IC50 [1]: 0.03 µM | O=c1[nH]c2cc(-c3nnn[nH]3)ccc2c2ccccc12
 |  |  |  |  |  | IC50 [1]: 1 µM | O=C(O)c1ccc2c(c1)[nH]c(=O)c1ccncc12
 |  |  |  |  |  | PARP % inhib @ 1 uM [1]: 0%; inhibition at 10 µM [2]: 22% | O=C(Nc1ccccc1)c1ccc2c(c1)[nH]c(=O)c1ccsc12
 |  |  |  |  |  | PARP % inhib @ 1 uM [1]: 21% | O=C(O)c1ccc2c3sccc3c(=O)n(CCCO)c2c1
 |  |  |  |  |  | PARP % inhib @ 1 uM [1]: 39% | O=c1[nH]c2cc(-c3nn[nH]n3)ccc2c2sccc12
 |  |  |  |  |  | PARP % inhib @ 1 uM [1]: 5% | CN(C)CCn1c(=O)c2ccsc2c2ccc(C(=O)O)cc21
6.12 | 15.7 | 0.454 | 8.33 | > 10 | > 10 | IC50 ([6]; HCT-116, read-out: HCT-116 (uM), cell proliferation modulatory activity, HCT-116, first column): 10 µM | O=C(O)c1ccc2c(c1)nc(Nc1ccccc1)c1ccsc12
7.6 | -3.3 |  |  |  | 6.26 | IC50 ([6]; HCT-116, HCT-116, second column, read-out: HCT-116 (uM), cell proliferation modulatory activity): 4.9 µM | c1ccc(Nc2nc3cc(-c4nnc[nH]4)ccc3c3sccc23)cc1
8.89 | 83.3 | 0.345 |  |  |  |  | Clc1cccc(Nc2nc3cc(-c4nnn[nH]4)ccc3c3sccc23)c1
4.22 | 81.7 | 0.329 |  | > 10 |  |  | CNC(=O)c1cccc(Nc2nc3cc(-c4nnn[nH]4)ccc3c3sccc23)c1
0.683 | -3.02 |  |  |  |  |  | COC(=O)c1ccc2c(c1)nc(Nc1ccccc1)c1ccncc12
6.52 | 75.9 | 0.088 | 1.12 |  | 5.86 | IC50 [8]: 0.009 µM | COc1cccc(Nc2nc3cc(C(=O)O)ccc3c3cnccc23)c1
2.68 | 82 | 0.115 | 1.7 | 4.34 | 7.44 | IC50 [8]: 0.041 µM | O=C(O)c1ccc2c(c1)nc(Nc1ccc(F)c(Cl)c1)c1ccncc12
4.25 | 10.2 |  |  | 3.94 |  |  | COC(=O)c1ccc2c(c1)nc(Nc1ccc(F)c(Cl)c1)c1ccncc12
3.4 | 19.4 |  |  |  |  |  | COC(=O)c1ccc2c(c1)nc(Nc1cccc(OC)c1)c1ccncc12
4.29 | 54.8 | 0.368 |  |  |  |  | O=C(O)c1ccc2c(c1)nc(Nc1ccc(F)c(Cl)c1)c1ncncc12
5.86 | 84.4 | 0.082 | 0.333 | > 10 | > 10 |  | O=C(O)c1ccc2c(c1)nc(Nc1cc(F)cc(F)c1)c1ccsc12
5.92 | 82.7 | 0.136 | 0.475 | > 10 | > 10 |  | O=C(O)c1ccc2c(c1)nc(Nc1cccc(F)c1)c1ccsc12
8.69 | 18.3 |  |  | > 10 |  |  | CNC(=O)c1cccc(Nc2nc3cc(C(=O)O)ccc3c3sccc23)c1
3.2 | 96.1 | 0.143 | 2.28 |  | > 10 |  | O=C(O)c1ccc2c(c1)nc(Nc1cccc(F)c1)c1ccncc12
6.97 | 46.8 |  |  | > 10 |  |  | O=C(NC1CC1)c1cccc(Nc2nc3cc(-c4nnn[nH]4)ccc3c3sccc23)c1
2.59 | 80 | > 1.1 |  | 4.05 | 2.41 |  | O=C(O)c1ccc2c(c1)nc(Nc1cc(F)cc(F)c1)c1ncncc12
0.882 | 68.2 | 0.37 | > 10 | 7.19 | 1.13 |  | O=C(O)c1ccc2c(c1)nc(Nc1cccc(Cl)c1)c1ncncc12
